Measured values reported in patent US20120225849A1, “2-Methoxyestradiol (2-ME2) Prodrug with Enhanced Bioavailability for Prophylaxis or Treatment of Cancerous or Non-Cancerous Condition” (The University of Kansas, priority 2011, published 2012).

Experiments:
[1] = system: OE33 xenografts; assay: Growth of Barrett's esophageal adenocarcinoma (BEAC) OE33 xenografts in nude mice; type: in vivo; settings: 75 mg/kg/day orogastric feeding, 8 days, versus vehicle control, listed as pro-2-ME2
Experimental: We injected ˜2.0×10^6 OE33 cells subcutaneously into the left hind leg flank of each nude mice […] for the development of tumor. The mice were divided into two groups (two mice per group) with a control group and Pro-2-ME2 treatment group. After forming palpable tumors, the nude mice bearing xenografts of OE33 cells were given daily pro-2-ME2 doses (75 mg/kg/day) by orogastric feeding or vehicle (control). Pro-2-ME2 was dissolved in 500 μl of saline water. We used 500 μl of saline water as a vehicle control. Tumor growth was monitored for 8 days by measuring two perpendicular diameters twice weekly. Tumor volume was calculated according to the formula V=a×b^2/2, where a and b are the largest and smallest diameters, respectively.

[2] = Rat plasma pharmacokinetics of 2-ME2 after intravenous and oral dosing (cannulated rat model); type: in vivo, Sprague Dawley rats; settings: for Bioavailability: AUC through 480 minutes
Experimental: The main compound of the present invention (2ME2-PD) and the native compound (8R,9S,13S,14S,17S)-2-methoxy-13-methyl-7,8,9,11,12,13,14,15,16,17-decahydro-6H-cyclopenta[a]phenanthren-17-ol (2-ME2) were dissolved independently in 0.1 M Captisol® at concentrations between 10 mg/mL and 21 mg/mL. The solutions were sterile filtered through 0.2 micron filters prior to use.
Animal studies were approved and conducted in accordance with the guidelines of the Institutional Animal Care and Use Committee. A cannulated rat model was used to study the intravenous (iv) and oral absorption 2-ME2 and 2-ME2-PD.
Sprague Dawley rats (male, 250-300 gram, Charles River Laboratories) were implanted with carotid artery, and jugular and/or femoral vein catheters. These studies were automated with the animals connected to the Culex Automated Pharmacology System allowing for direct comparison of pharmacokinetic behavior between the orally and iv administered compounds in the same animal. Following surgery, the animals were connected to the Culex and allowed to recover and acclimate. Fasted animals were dosed intravenously and orally with solutions of 2-ME2-PD in 0.1 M Captisol® (CyDex Pharmaceuticals, Inc) and 2-ME2 parent in 0.2 M HP-13-CD (Sigma-Aldrich).
Oral doses were given via gavage to the animal under light anesthesia. Blood was sampled at times ranging from five to 1440 minutes into heparinized vials stored on the chilled fraction collector, and remained there until sampling was complete. Blood samples were processed to plasma via centrifugation and stored at −80° C. until analysis for 2-ME2-PD, 2-ME2 and associated metabolite concentration by liquid chromatography-mass spectrometry (LC-MS/MS). Bioanalytical methods for the 2-ME2-PD and 2-ME2 analysis were modified from those of Lakhani et. al. Quantitation was made relative to deuterated internal standards.
Pharmacokinetic analysis of the resulting plasma concentration time data was performed using PK Solution software (Summit PK). Results for the studies conducted are illustrated in FIG. 1 and Table II (below). For oral doses of 2-ME2, no compound was found in plasma at all time points studied (<2 ng/mL LOQ). All samples from times greater than 480 minutes had 2-ME2 levels that were below the limit of quantitation.

[3] = Reference 13, cited from earlier work
[4] = oxidation of 2-ME2 at the 17 position; References 3, 13 and 19; cited from earlier work
[5] = plasma 2-ME2, 2-ME2-PD intravenous 10 mg/kg
[6] = plasma 2-ME2, 2-ME2-PD oral 20 mg/kg, average of two animals
[7] = plasma 2-ME2, 2-ME2-PD oral 31.5 mg/kg
[8] = plasma 2-ME2, 2-ME2 intravenous 5.21 mg/kg

Structure (SMILES): COc1cc2c(cc1OCOP(=O)([O-])[O-])CC[C@@H]1[C@@H]2CC[C@]2(C)[C@@H](OC(C)=O)CC[C@@H]12.[Na+].[Na+] [2-ME2-PD, disodium(((8R,9S,13S,14S,17S)-17-acetoxy-2-methoxy-13-methyl-7,8,9,11,12,13,14,15,16,17-decahydro-6H-cyclopenta[a]phenanthren-3-yl)oxy)methyl phosphate]
- growth of OE33 tumor implants (tumor volume) [1]: significantly inhibited
- Bioavailability ([2]; 2-ME2-PD intravenous 10 mg/kg, relative to 2ME2 iv and corrected for dose): 21.8%
- Bioavailability ([2]; 2-ME2-PD oral 20 mg/kg, relative to 2ME2 iv and corrected for dose, average of two animals): 4.4%
- Bioavailability ([2]; 2-ME2-PD oral 31.5 mg/kg, relative to 2ME2 iv and corrected for dose): 4.9%
- absolute bioavailabilities from oral administration ([2]; oral 2-ME2 prodrug, 0-480 minutes): 4-5%
- Cmax [2, 5]: 121 ng/mL
- T1/2 [2, 5]: 4.37 h
- AUCt-480 ([2]; plasma 2-ME2, 2-ME2-PD intravenous 10 mg/kg (corrected dose 6.06 mg/kg)): 4967 ng·min/mL
- AUCt-480 ([2]; plasma 2-ME2, 2-ME2-PD oral 20 mg/kg (corrected dose 12.13 mg/kg), average of two animals): 2006 ng·min/mL
- Cmax [2, 6]: 8.4 ng/mL
- T1/2 [2, 6]: 13.4 h
- Cmax [2, 7]: 9.9 ng/mL
- T1/2 [2, 7]: 6.85 h
- AUCt-480 ([2]; plasma 2-ME2, 2-ME2-PD oral 31.5 mg/kg (corrected dose 19.11 mg/kg)): 3516 ng·min/mL

Structure (SMILES): COc1cc2c(cc1O)CC[C@@H]1[C@@H]2CC[C@]2(C)[C@@H](O)CC[C@@H]12 [2-ME2]
- orally administered dose of 2-ME2 recovered in the urine [3]: ~1%
- fraction of orally administered 2-ME2 dose recovered in the urine as metabolites ([3]; metabolites, animal and human studies): less than 1%
- fraction of orally administered 2-ME2 dose recovered in the urine ([3]; unchanged 2-ME2, animal and human studies): less than 0.1%
- Bioavailability ([2]; 2-ME2 intravenous 5.21 mg/kg (reference)): 100%
- 2-ME2 in plasma at all time points (LOQ) ([2]; oral doses of 2-ME2 (5.21 mg/kg), no compound found): < 2 ng/mL
- AUCt-480 [2, 8]: 19253 ng·min/mL
- Cmax [2, 8]: 1221 ng/mL
- T1/2 [2, 8]: 0.983 h

Structure (SMILES): COc1cc2c(cc1O)CC[C@@H]1[C@@H]2CC[C@]2(C)C(=O)CC[C@@H]12 [2-methoxyestrone]
- loss in activity in vitro versus 2-ME2 [4]: 10-to 100 fold
